The test system of experiment [1] is Mycobacterium tuberculosis H37Rv (ATCC-27294). As to the kind of experiment: MIC by MABA (Microplate Alamar Blue Assay), in vitro antimicrobial activity. It is filed as cell-based. The conditions noted are these: for Inhibition (%): Table 2, M. tuberculosis H37Rv (ATCC 27294), concentration not given. In general terms: Resazurin is reduced to fluorescent resorufin, in cell work by metabolically active cells.

Experiment [2] deals with promastigote forms of Leishmania amazonensis. As to the kind of experiment: Leishmanicide evaluation in vitro, live parasites counted by fluorescence. The conditions noted are these: L. amazonensis promastigotes, read-out: Percentage of parasitic inhibition; for inhibition at 160 µg/mL: concentration 160 μg/mL; for inhibition at 10 µg/mL: concentration 10 μg/mL. It is filed as cell-based. The method, then: The evaluation of the leishmanicide activity of the type I and II 1,2,3-triazole derivatives was made through in vitro essays against promastigote forms of Leishmania amazonensis, and after the incubation with compounds, live parasites are counted by fluorescence, thus obtaining as a result, the percentage of inhibition of the compounds evaluated.
Essays were performed in triplicate using pentamidine as a positive pattern with a 160 μg/mL concentration.
The evaluation of the leishmanicide activity of type I (Formula XII) and II (Formula XIII) imidazole derivatives was performed through in vitro essays against promastigote forms of Leishmania amazonensis, and after the incubation with compounds, live parasites are counted by fluorescence, thus obtaining as a result the inhibition percentage of the evaluated compounds.
Essays were performed in triplicate using pentamidine as a positive pattern with a 160 μg/mL concentration, determining which compounds evaluated inhibited the parasite in lower concentrations and the percentage higher than the pattern. Table 6 lists the results obtained in the leishmanicide evaluation of derivatives 140a 148a 146a, 149a.

[3] abbreviates: Table 2, type I and II 1,2,3-triazoles, M. tuberculosis H37Rv (ATCC 27294), MABA.
The mark [4] stands for this setting: Mycobacterium tuberculosis, Table 4, type I (Formula XII) imidazole derivatives, read-out: MIC.
The mark [5] stands for this setting: 1,2,3-triazole derivatives types I-III and rifampicin comparison pattern, M. tuberculosis H37Rv, MABA.
[6] abbreviates: Mycobacterium tuberculosis, Table 2, type I and II 1,2,3-triazoles, M. tuberculosis H37Rv (ATCC 27294), MABA, read-out: MIC.
Where [7] appears, read: Mycobacterium tuberculosis, Table 5, type II (Formula XIII) imidazole derivatives, read-out: MIC.
Setting [8] is: Mycobacterium tuberculosis, 1,2,3-triazole derivatives types I-III and rifampicin comparison pattern, M. tuberculosis H37Rv, MABA, read-out: MIC.

Converted amounts (≈) assume the structure as drawn. “And” between values parts separate entries of the source, which are not always exact repeats. Identical values can stand only once. Like-named read-outs stand apart in the source and are kept apart here.

As to `N#Cc1cccc(-n2cc(C=O)nn2)c1` [114h, 4-carboxaldehyde-1-(3-cyanophenyl)-1H-1,2,3-triazole], in experiment [1] (setting [3]), the “MIC (μg/mL)” value is recorded as 20,0 μg/mL.

With `CCOC(=O)c1ncn(-c2ccc(C)cc2)c1N(C(=O)c1ccccc1F)C(=O)c1ccccc1F` [146a], in experiment [1] (setting [4]), the MIC was determined as 3 µg/mL (≈ 6.13 µM). For the same compound, the inhibition at 80 µg/mL in experiment [2] (concentration 80 μg/mL) is 75%.

As for `Cc1ccc(-n2cc(C=O)nn2)cc1` [114c, 4-carboxaldehyde-1-(4-methylphenyl)-1H-1,2,3-triazole], the MIC in experiment [1] (setting [5]) was determined as 2.5 µg/mL (≈ 13.4 µM). The “MIC (μg/mL)” value in experiment [1] (setting [3]) is 2,5 μg/mL.

Take `COc1ccc(-n2cc(C(F)F)nn2)cc1` [121d, 1-(4-methoxyphenyl)-4-difluoromethyl-1H-1,2,3-triazole]: in experiment [1] (setting [6]), the MIC was 10 µg/mL (≈ 44.4 µM). For the same compound, the “Inhibition (%)” value in experiment [1] is on record as 93%.

In the case of `CCOC(=O)c1ncn(-c2ccc(Cl)cc2)c1NC(=O)c1ccccc1F` [149c, Ester ethyl 1-(4-chlorophenyl)-5-[(2-fluorobenzoic)amino]-1H-imidazole-4-carboxylate], in experiment [1] (setting [7]), the MIC amounted to 3 µg/mL (≈ 7.74 µM).

For the compound `N#Cc1cccc(-n2cc(C(F)F)nn2)c1` [121h, 1-(3-cyanophenyl)-4-difluoromethyl-1H-1,2,3-triazole], the MIC in experiment [1] (setting [6]) stood at 80 µg/mL (≈ 363 µM).

As for `CCOC(=O)c1ncn(-c2c(F)cccc2F)c1N(C(=O)c1ccccc1F)C(=O)c1ccccc1F` [146e], the MIC in experiment [1] (setting [4]) was 3 µg/mL (≈ 5.87 µM).

Regarding `N=C(N)c1ccc(OCCCCCOc2ccc(C(=N)N)cc2)cc1` [Pentamidine, pentamidine, reference compound], the inhibition at 160 µg/mL in experiment [2] is 53%.

For `FC(F)c1cn(-c2cc(Cl)cc(Cl)c2)nn1` [121g, 1-(3,5-dichlorophenyl)-4-difluoromethyl-1H-1,2,3-triazole], the MIC in experiment [1] (setting [6]) was determined as 80 µg/mL (≈ 303 µM). In addition, the “Inhibition (%)” value in experiment [1] was found to be 55%.

For `O=Cc1cn(-c2cccc(Cl)c2)nn1` [114f, 4-carboxaldehyde-1-(3-chlorophenyl)-1H-1,2,3-triazole], in experiment [1] (setting [6]), the MIC is 10 µg/mL (≈ 48.2 µM). In experiment [1], the “Inhibition (%)” value worked out at 100%. Further, in experiment [2] (concentration 320 μg/mL), the inhibition at 320 µg/mL came out at 72%.

As to `O=Cc1cn(-c2cc(Cl)cc(Cl)c2)nn1` [114g, 4-carboxaldehyde-1-(3,5-dichlorophenyl)-1H-1,2,3-triazole], the minimal inhibitory concentration (MIC) in experiment [1] (setting [5]) stood at 2.5 µg/mL (≈ 10.3 µM). The “MIC (μg/mL)” value in experiment [1] (setting [3]) is 2,5 μg/mL.

With `CCOC(=O)c1ncn(-c2ccc(C)cc2)c1NC(=O)c1ccccc1F` [149a, Ester ethyl 5-[(2-fluorobenzoic)amino]-1-(4-methylphenyl)-1H-imidazole-4-carboxylate], in experiment [2], the inhibition at 160 µg/mL was 93%.

In experiment [1] (Mycobacterium tuberculosis), `FC(F)c1cn(-c2ccc(Cl)cc2)nn1` [121a, 1-(4-chlorophenyl)-4-difluoromethyl-1H-1,2,3-triazole] registered an MIC of 40 µg/mL (≈ 174 µM). Besides, the “MIC (μg/mL)” value in experiment [1] (setting [3]) was 40,0 μg/mL.

For `O=Cc1cn(-c2ccc(Br)cc2)nn1` [114b, 4-carboxaldehyde-1-(4-bromophenyl)-1H-1,2,3-triazole], the minimal inhibitory concentration (MIC) in experiment [1] (setting [5]) turned out to be 5.0 µg/mL (≈ 19.8 µM). Further, the “MIC (μg/mL)” value in experiment [1] (setting [3]) is given as 5,0 μg/mL.

For the compound `CCOC(=O)c1ncn(-c2ccc(Cl)cc2)c1N(C(=O)c1ccccc1F)C(=O)c1ccccc1F` [146c], the minimum inhibitory concentration (MIC) in experiment [1] (setting [4]) was 3 µg/mL (≈ 5.88 µM).

As for `CCOC(=O)c1ncn(-c2ccc(C)cc2)c1NC(=O)c1ccc(F)cc1` [148a, Ester ethyl 5-[(4-fluorobenzoic)amino]-1-(4-methylphenyl)-1H-imidazole-4-carboxylate], the MIC in experiment [1] (setting [7]) came to 3 µg/mL (≈ 8.17 µM). In addition, the inhibition at 10 µg/mL in experiment [2] was 90%.

In the case of `O=[N+]([O-])c1ccc(-n2cc(C(F)F)nn2)cc1` [121j, 1-(4-nitrophenyl)-4-difluoromethyl-1H-1,2,3-triazole], the MIC in experiment [1] (setting [8]) came to 40 µg/mL (≈ 167 µM).

In the case of `CCOC(=O)c1ncn(-c2ccc(C#N)cc2)c1NC(=O)c1ccccc1F` [149b, Ester ethyl 1-(4-cyanophenyl)-5-[(2-fluorobenzoic)amino]-1H-imidazole-4-carboxylate], the MIC in experiment [1] (setting [7]) was 3 µg/mL (≈ 7.93 µM).

With `COc1ccc(OC)c(-n2cc(C=O)nn2)c1` [114e, 4-carboxaldehyde-1-(2,5-dimethoxyphenyl)-1H-1,2,3-triazole], the “MIC (μg/mL)” value in experiment [1] (setting [3]) is reported as 80,0 μg/mL.

Consider `O=Cc1cn(-c2ccc([N+](=O)[O-])cc2)nn1` [114j, 4-carboxaldehyde-1-(4-nitrophenyl)-1H-1,2,3-triazole], for which the MIC in experiment [1] (setting [8]) was 20 µg/mL (≈ 91.7 µM). In addition, the inhibition at 160 µg/mL in experiment [2] was determined as 11%.

As to `COc1ccccc1-n1cc(C=O)nn1` [114l, 4-carboxaldehyde-1-(2-methoxyphenyl)-1H-1,2,3-triazole], the “MIC (μg/mL)” value in experiment [1] (setting [3]) is on record as 40,0 μg/mL.

For `Cc1ccc(-n2cc(C(F)F)nn2)cc1` [121c, 1-(4-methylphenyl)-4-difluoromethyl-1H-1,2,3-triazole], in experiment [1] (setting [6]), the MIC turned out to be 40 µg/mL (≈ 191 µM). The “Inhibition (%)” value in experiment [1] is reported as 87%.

The compound `N#Cc1ccc(-n2cc(C=O)nn2)cc1` [114i, 4-carboxaldehyde-1-(4-cyanophenyl)-1H-1,2,3-triazole] registered an MIC in experiment [1] (setting [5]) of 5.0 µg/mL (≈ 25.2 µM). In addition, the “MIC (μg/mL)” value in experiment [1] (setting [3]) was 5,0 μg/mL.

With `CO[C@H]1/C=C/O[C@@]2(C)Oc3c(C)c(O)c4c(O)c(c(/C=N/N5CCN(C)CC5)c(O)c4c3C2=O)NC(=O)/C(C)=C\C=C\[C@H](C)[C@H](O)[C@@H](C)[C@@H](O)[C@@H](C)[C@H](OC(C)=O)[C@@H]1C` [Rifampicin, rifampicin, reference compound], the MIC in experiment [1] (setting [5]) turned out to be 1.0 µg/mL (≈ 1.22 µM); in experiment [1] (Mycobacterium tuberculosis, imidazole derivatives and rifampicin comparison pattern, M. tuberculosis H37Rv, MABA, read-out: MIC), 1 µg/mL (≈ 1.22 µM). Besides, in experiment [1] (setting [3]), the “MIC (μg/mL)” value is 1,0 μg/mL.

As to `N#Cc1ccc(-n2cc(C(F)F)nn2)cc1` [121i, 1-(4-cyanophenyl)-4-difluoromethyl-1H-1,2,3-triazole], in experiment [1] (setting [6]), the MIC was determined as 20 µg/mL (≈ 90.8 µM).

With `FC(F)c1cn(-c2ccc(Br)cc2)nn1` [121b, 1-(4-bromophenyl)-4-difluoromethyl-1H-1,2,3-triazole], in experiment [1] (setting [6]), the MIC came to 20 µg/mL (≈ 73 µM). In experiment [1], the “Inhibition (%)” value was 75%.

Regarding `COc1ccc(-n2cc(C=O)nn2)cc1OC` [114m, 4-carboxaldehyde 1-(3,4-dimethoxyphenyl)-1H-1,2,3-triazole], the “MIC (μg/mL)” value in experiment [1] (setting [3]) is recorded as 80,0 μg/mL.

As to `O=Cc1cn(-c2ccc(Cl)cc2)nn1` [114a, 4-carboxaldehyde-1-(4-chlorophenyl)-1H-1,2,3-triazole], the MIC in experiment [1] (setting [5]) was 5 µg/mL and 5.0 µg/mL. Moreover, the “MIC (μg/mL)” value in experiment [1] (setting [3]) was 5,0 μg/mL.

Regarding `CCOC(=O)c1ncn(-c2ccc(C)cc2)c1N(C(=O)c1ccc(F)cc1)C(=O)c1ccc(F)cc1` [140a], the inhibition at 10 µg/mL in experiment [2] came out at 79%.

`CCOC(=O)c1ncn(-c2ccc(C#N)cc2)c1N(C(=O)c1ccc(F)cc1)C(=O)c1ccc(F)cc1` [140b]: the MIC in experiment [1] (setting [4]) amounted to 1.2 µg/mL (≈ 2.4 µM).

Turning to `FC(F)c1cn(-c2cccc(Cl)c2)nn1` [121f, 1-(3-chlorophenyl)-4-difluoromethyl-1H-1,2,3-triazole], the MIC in experiment [1] (setting [6]) was found to be 80 µg/mL (≈ 348 µM). Further, the “Inhibition (%)” value in experiment [1] is reported as 54%. In experiment [2], the inhibition at 10 µg/mL amounted to 93%.

In the case of `Brc1ccc(/N=C/c2cn(-c3ccc(Br)cc3)nn2)cc1` [compound 120, (E)-4-bromo-N-((1-(4-bromophenyl)-1H-1,2,3-triazole-4-il)methylene) benzenamine], the MIC in experiment [1] (setting [5]) was 20 µg/mL (≈ 49.3 µM).

For `Clc1ccc(/N=C/c2cn(-c3ccc(Cl)cc3)nn2)cc1` [compound 119, (E)-4-chloride-N-((1-(4-chlorophenyl)-1H-1,2,3-triazole-4-il)methylene) benzenamine], the MIC in experiment [1] (setting [5]) amounted to 40 µg/mL (≈ 126 µM).

For `COc1ccc(-n2cc(C=O)nn2)cc1` [114d, 4-carboxaldehyde-1-(4-methoxyphenyl)-1H-1,2,3-triazole], in experiment [1] (setting [3]), the “MIC (μg/mL)” value was 10,0 μg/mL.

For the compound `COc1ccc(OC)c(-n2cc(C(F)F)nn2)c1` [121e, 1-(2,5-dimethoxyphenyl)-4-difluoromethyl-1H-1,2,3-triazole], the MIC in experiment [1] (setting [6]) worked out at 80 µg/mL (≈ 313 µM). Also, in experiment [1], the “Inhibition (%)” value stood at 74%.

With `COc1ccc(-n2cc(C(F)F)nn2)cc1OC` [121m, 1-(3,4-dimethoxyphenyl)-4-difluoromethyl-1H-1,2,3-triazole], the MIC in experiment [1] (setting [6]) worked out at 80 µg/mL (≈ 313 µM). In addition, the “Inhibition (%)” value in experiment [1] worked out at 66%.

As usually defined, the MIC is the lowest concentration found to suppress growth. A word on the inhibition: it is the change of the read-out against control, counted positive when it falls.
